Test results from patent US20120157471A1, “BENZIMIDAZOLE DERIVATIVES” (PFIZER INC., priority 2009, published 2012).

Columns and labels:
Gli-Luc/MEF cells (Smo) = experiment: Gli-Luc/MEF assay (Shh-stimulated luciferase reporter under the Gli response element); type: cell-based, mouse; conditions: Mus musculus, MEF, 48 h
In short: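 IC50 derived from luminescence (Bright-Glo) after 48 h at 37° C, 5% CO2, with compound at […] (3-fold dilutions) added together with mouse Shh at 2 μg/mL final. Cells: MEFs from Gli-Luc transgenic mice.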

[1] = molecular target: T1, human Smo (amino acids 181-787) (Homo sapiens, UniProt Q99835); experiment: Smo radioligand competition binding assay (displacement of 3H-PF-03451358 from HEK293 membranes); conditions: for inhibition at 0.05 µM: 0.05 μM test compound, displacement of 3H-PF-03451358, read-out: SMO % inh. @ 0.05 μM; for IC50: radioligand competition binding
T1 construct: expressed in transfected cells; membrane preparation
T1 sequence (Q99835 181-787): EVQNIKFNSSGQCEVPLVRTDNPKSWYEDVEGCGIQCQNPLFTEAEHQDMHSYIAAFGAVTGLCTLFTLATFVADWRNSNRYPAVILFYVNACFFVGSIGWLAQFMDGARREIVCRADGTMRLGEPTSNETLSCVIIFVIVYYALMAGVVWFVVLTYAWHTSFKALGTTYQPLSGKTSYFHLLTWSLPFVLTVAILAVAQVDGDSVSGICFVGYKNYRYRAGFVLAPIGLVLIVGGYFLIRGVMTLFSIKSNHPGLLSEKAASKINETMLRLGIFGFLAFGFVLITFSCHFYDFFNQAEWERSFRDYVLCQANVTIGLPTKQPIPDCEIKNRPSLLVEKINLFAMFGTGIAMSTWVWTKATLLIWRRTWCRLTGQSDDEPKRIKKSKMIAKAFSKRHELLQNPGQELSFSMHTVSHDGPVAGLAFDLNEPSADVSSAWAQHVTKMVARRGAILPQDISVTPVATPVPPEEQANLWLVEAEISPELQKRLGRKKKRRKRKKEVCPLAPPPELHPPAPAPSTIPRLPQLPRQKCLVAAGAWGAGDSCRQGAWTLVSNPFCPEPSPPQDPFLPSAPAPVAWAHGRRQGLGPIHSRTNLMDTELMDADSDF
In short: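 Displacement of 3 nM tritiated PF-03451358 measured by filtration and scintillation counting after 2 h at room temperature, using 40 μg/well HEK293 membranes bearing cell-surface Smo 181-787, pH 7.5 buffer. Specific binding defined against 30 μM unlabelled ligand; IC50 via variable-slope sigmoidal fit.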

Compound | IC50 (Gli-Luc/MEF cells (Smo)) | inhibition at 0.05 µM [1] | IC50 [1]
Cn1c(-c2nc(N3CCC(NS(C)(=O)=O)CC3)ccc2Cl)nc2ccccc21 [Example B-12, N-{1-[5-chloro-6-(1-methyl-1H-benzimidazol-2-yl)pyridin-2-yl]piperidin-4-yl}methanesulfonamide] | 1 nM | 100% | 10 nM
Cn1c(-c2nc(N3CCC(O)CC3)ncc2Cl)nc2ccccc21 [Example C-11, 1-[5-chloro-4-(1-methyl-1H-benzimidazol-2-yl)pyrimidin-2-yl]piperidin-4-ol] | 24 nM | 98% | 16 nM
Cn1c(-c2cc(N3CCN(S(C)(=O)=O)CC3)ncc2F)nc2ccccc21 [Example D-6, 2-{5-fluoro-2-[4-(methylsulfonyl)piperazin-1-yl]pyridin-4-yl}-1-methyl-1H-benzimidazole] | 22 nM | 97% | 12 nM
Cc1ccc(N2CCC(S(C)(=O)=O)CC2)nc1-c1nc2ccccc2n1C [Example E-6, 1-methyl-2-{3-methyl-6-[4-(methylsulfonyl)piperidin-1-yl]pyridin-2-yl}-1H-benzimidazole] | 61.6 nM | 89% | 51 nM
CNC(=O)N(C)C1CN(c2cc(-c3nc4ccccc4n3C)c(Cl)cn2)C1 [Example A-151, 1-{1-[5-chloro-4-(1-methyl-1H-benzimidazol-2-yl)pyridin-2-yl]azetidin-3-yl}-1,3-dimethylurea] | 26 nM | 83% | 90 nM
Cn1c(-c2cc(N3CC[C@@H](O)[C@@H](O)C3)ncc2Cl)nc2ccccc21 [Example A-96, (3S,4R)-1-[5-chloro-4-(1-methyl-1H-benzimidazol-2-yl)pyridin-2-yl]piperidine-3,4-diol] | 16 nM | 86% | 46 nM
Cn1c(-c2cc(N3CCC(C(=O)N4CCOCC4)CC3)ncc2Cl)nc2ccccc21 [Example A-80, 2-{5-chloro-2-[4-(morpholin-4-ylcarbonyl)piperidin-1-yl]pyridin-4-yl}-1-methyl-1H-benzimidazole] | 8 nM | 92% | 45 nM
Cn1c(-c2cc(N3CCN(S(C)(=O)=O)CC3)ncc2Cl)nc2ccccc21 [Example A-4, 2-{5-chloro-2-[4-(methylsulfonyl)piperazin-1-yl]pyridin-4-yl}-1-methyl-1H-benzimidazole] | 3 nM | 91% | 29.2 nM
CC(=O)N1CCN(c2cc(-c3nc4ccccc4n3C)c(Cl)cn2)[C@H](C)C1 [Example A-168, 2-{2-[(2R)-4-acetyl-2-methylpiperazin-1-yl]-5-chloropyridin-4-yl}-1-methyl-1H-benzimidazole] | 7 nM | 97% | 8 nM
CN1CCN(C2CCN(c3cc(-c4nc5ccccc5n4C)c(Cl)cn3)CC2)CC1 [Example A-113, 2-{5-chloro-2-[4-(4-methylpiperazin-1-yl)piperidin-1-yl]pyridin-4-yl}-1-methyl-1H-benzimidazole] | 17 nM | 72% | 125 nM
Cn1c(-c2cc(N3C[C@H]4CC[C@@H](C3)N4S(C)(=O)=O)ncc2Cl)nc2ccccc21 [Example A-175, 2-{5-chloro-2-[(1R,5S)-8-(methylsulfonyl)-3,8-diazabicyclo[3.2.1]oct-3-yl]pyridin-4-yl}-1-methyl-1H-benzimidazole] | 9 nM | 97% | 17 nM
CNC(=O)N1CCN(c2cc(-c3nc4ccccc4n3C)c(F)cn2)CC1 [Example D-7, 4-[5-fluoro-4-(1-methyl-1H-benzimidazol-2-yl)pyridin-2-yl]-N-methylpiperazine-1-carboxamide] | 54 nM | 88% | 47 nM
Cn1c(-c2cc(N3CCOCC(N4CCC(O)CC4)C3)ncc2Cl)nc2ccccc21 (centres unmarked) [Example A-115, 1-{4-[5-chloro-4-(1-methyl-1H-benzimidazol-2-yl)pyridin-2-yl]-1,4-oxazepan-6-yl}piperidin-4-ol] | 221 nM | 69% | 
CNC(=O)c1[nH]nc2c1CN(c1cc(-c3nc4ccccc4n3C)c(Cl)cn1)CC2 [Example A-114, 5-[5-chloro-4-(1-methyl-1H-benzimidazol-2-yl)pyridin-2-yl]-N-methyl-4,5,6,7-tetrahydro-1H-pyrazolo[4,3-c]pyridine-3-carboxamide] | 47 nM | 71% | 140 nM
COC(=O)N1CCCN(c2cc(-c3nc4ccccc4n3C)ccn2)CC1 [Example A-156, methyl 4-[4-(1-methyl-1H-benzimidazol-2-yl)pyridin-2-yl]-1,4-diazepane-1-carboxylate] | 11 nM | 95% | 23 nM
Cn1c(-c2cc(N3C[C@@H](O)[C@@H](O)C3)ncc2Cl)nc2ccccc21 [Example A-129, (3R,4S)-1-[5-chloro-4-(1-methyl-1H-benzimidazol-2-yl)pyridin-2-yl]pyrrolidine-3,4-diol] | 105 nM | 53% | 
C[C@@H]1CN(S(C)(=O)=O)CCN1c1cc(-c2nc3ccccc3n2C)c(Cl)cn1 [Example A-166, 2-{5-chloro-2-[(2R)-2-methyl-4-(methylsulfonyl)piperazin-1-yl]pyridin-4-yl}-1-methyl-1H-benzimidazole] | 4 nM | 102% | 
Cn1c(-c2nc(N3CCN(C=O)CC3)ccc2Cl)nc2ccccc21 [Example B-5, 4-[5-chloro-6-(1-methyl-1H-benzimidazol-2-yl)pyridin-2-yl]piperazine-1-carbaldehyde] | 27 nM | 92% | 27 nM
Cn1c(-c2cc(N3CCC(S(N)(=O)=O)CC3)ncc2Cl)nc2ccccc21 [Example A-66, 1-[5-chloro-4-(1-methyl-1H-benzimidazol-2-yl)pyridin-2-yl]piperidine-4-sulfonamide] | 5 nM | 94% | 14 nM
Cn1c(-c2cc(N3C[C@](C)(CO)[C@](C)(CO)C3)ncc2Cl)nc2ccccc21 [Example A-108, {(3R,4S)-1-[5-chloro-4-(1-methyl-1H-benzimidazol-2-yl)pyridin-2-yl]-3,4-dimethylpyrrolidine-3,4-diyl}dimethanol] | 59 nM | 76% | 109 nM
Cn1c(-c2ccnc(N3CCC(NS(C)(=O)=O)CC3)n2)nc2ccccc21 [Example C-10, N-{1-[4-(1-methyl-1H-benzimidazol-2-yl)pyrimidin-2-yl]piperidin-4-yl}methanesulfonamide] | 57 nM | 97% | 44 nM
CC(=O)NCC1CCCN(c2cc(-c3nc4ccccc4n3C)c(Cl)cn2)C1 (centres unmarked) [Example A-62, N-({1-[5-chloro-4-(1-methyl-1H-benzimidazol-2-yl)pyridin-2-yl]piperidin-3-yl}methyl)acetamide] | 21 nM | 95% | 24 nM
CC(=O)N1CCN(c2cc(-c3nc4ccccc4n3C)c(Cl)cn2)C[C@H]1C [Example A-159, 2-{2-[(3R)-4-acetyl-3-methylpiperazin-1-yl]-5-chloropyridin-4-yl}-1-methyl-1H-benzimidazole] | 4 nM | 100% | 10 nM
CCNC(=O)NC1CN(c2cc(-c3nc4ccccc4n3C)c(Cl)cn2)C1 [Example A-148, 1-{1-[5-chloro-4-(1-methyl-1H-benzimidazol-2-yl)pyridin-2-yl]azetidin-3-yl}-3-ethylurea] | 9 nM | 95% | 21 nM
Cn1c(-c2cc(N3CCN(C(=O)C4CCOC4)CC3)ncc2Cl)nc2ccccc21 (centres unmarked) [Example A-191, 2-{5-chloro-2-[4-(tetrahydrofuran-3-ylcarbonyl)piperazin-1-yl]pyridin-4-yl}-1-methyl-1H-benzimidazole] | 1.7 nM | 101% | 6 nM
Cc1nccc(C2(O)CCN(c3cc(-c4nc5ccccc5n4C)c(Cl)cn3)C2)n1 (centres unmarked) [Example A-123, 1-[5-chloro-4-(1-methyl-1H-benzimidazol-2-yl)pyridin-2-yl]-3-(2-methylpyrimidin-4-yl)pyrrolidin-3-ol] | 114 nM | 59% | 
Cn1c(-c2cc(N3CCC(C(=O)NC4CCOC4)CC3)ncc2Cl)nc2ccccc21 (centres unmarked) [Example A-208, 1-[5-chloro-4-(1-methyl-1H-benzimidazol-2-yl)pyridin-2-yl]-N-(tetrahydrofuran-3-yl)piperidine-4-carboxamide] | 18.1 nM | 102% | 23 nM
Cc1cnc(N2CCN(S(C)(=O)=O)CC2)cc1-c1nc2ccccc2n1C [Example E-3, 1-methyl-2-{5-methyl-2-[4-(methylsulfonyl)piperazin-1-yl]pyridin-4-yl}-1H-benzimidazole] | 38.1 nM | 97% | 33 nM
Cn1c(-c2ccnc(N3CCC(NS(C)(=O)=O)CC3)c2)nc2ccccc21 [Example A-17, N-{1-[4-(1-methyl-1H-benzimidazol-2-yl)pyridin-2-yl]piperidin-4-yl}methanesulfonamide] | 6 nM | 99% | 13 nM
Cn1ccnc1C(O)C1CCN(c2cc(-c3nc4ccccc4n3C)c(Cl)cn2)CC1 (centres unmarked) [Example A-73, {1-[5-chloro-4-(1-methyl-1H-benzimidazol-2-yl)pyridin-2-yl]piperidin-4-yl}(1-methyl-1H-imidazol-2-yl)methanol] | 25 nM | 93% | 45 nM
